Experimental data from PubChem BioAssay (NCI).
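Test compounds were applied to cells in 96-well plates for 48 hours at 5 doses. At the GI50, growth is halved. The concentration for full growth arrest is given as TGI.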

What was measured:
Test in all cases: DTP human tumour cell line panel, 48 h
[1] = tested on: 786-0 renal
[2] = tested on: A498 renal
[3] = tested on: A549 NSCLC
[4] = tested on: ACHN renal
[5] = tested on: BT-549 breast
[6] = tested on: CAKI-1 renal
[7] = tested on: CCRF-CEM leukemia
[8] = tested on: COLO 205 colon
[9] = tested on: DU-145 prostate
[10] = tested on: EKVX NSCLC
[11] = tested on: HCC-2998 colon
[12] = tested on: HCT-116 colon
[13] = tested on: HCT-15 colon
[14] = tested on: HL-60(TB) leukemia
[15] = tested on: HOP-62 NSCLC
[16] = tested on: HOP-92 NSCLC
[17] = tested on: HS 578T breast
[18] = tested on: HT29 colon
[19] = tested on: IGROV1 ovarian
[20] = tested on: K-562 leukemia
[21] = tested on: KM12 colon
[22] = tested on: LOX IMVI melanoma
[23] = tested on: M14 melanoma
[24] = tested on: MALME-3M melanoma
[25] = tested on: MCF7 breast
[26] = tested on: MDA-MB-231 breast
[27] = tested on: MDA-MB-435
[28] = tested on: MOLT-4 leukemia
[29] = tested on: NCI-H226 lung
[30] = tested on: NCI-H23 lung
[31] = tested on: NCI-H460 lung
[32] = tested on: NCI-H522 lung
[33] = tested on: NCI/ADR-RES ovarian
[34] = tested on: OVCAR-3 ovarian
[35] = tested on: OVCAR-4 ovarian
[36] = tested on: OVCAR-5 ovarian
[37] = tested on: OVCAR-8 ovarian
[38] = tested on: PC-3 prostate
[39] = tested on: RPMI-8226 leukemia
[40] = tested on: RXF 393 renal
[41] = tested on: SF-268 CNS
[42] = tested on: SF-295 CNS
[43] = tested on: SF-539 CNS
[44] = tested on: SK-MEL-2 melanoma
[45] = tested on: SK-MEL-28 melanoma
[46] = tested on: SK-MEL-5 melanoma
[47] = tested on: SK-OV-3 ovarian
[48] = tested on: SN12C renal
[49] = tested on: SNB-19 CNS
[50] = tested on: SNB-75 CNS
[51] = tested on: SR leukemia
[52] = tested on: SW-620 colon
[53] = tested on: T-47D breast
[54] = tested on: TK-10 renal
[55] = tested on: U251 CNS
[56] = tested on: UACC-257 melanoma
[57] = tested on: UACC-62 melanoma
[58] = tested on: UO-31 renal

CC(C)[C@@H]1NC(=O)[C@]2(C)CSC(=N2)c2csc(n2)CNC(=O)C[C@@H](/C=C/CCS)OC1=O
GI50 [1]: 454 nM
TGI [1]: > 100000 nM
GI50 [2]: 15.6 nM
TGI [2]: 114 nM
GI50 [3]: 38.3 nM
TGI [3]: 20900 nM
GI50 [4]: 1750 nM
TGI [4]: 9120 nM
GI50 [5]: 397 nM
TGI [5]: > 100000 nM
GI50 [6]: 1830 nM
TGI [6]: 7830 nM
GI50 [7]: 276 nM
TGI [7]: > 100000 nM
GI50 [8]: 228 nM
TGI [8]: 709 nM
GI50 [9]: 147 nM
TGI [9]: > 100000 nM
GI50 [10]: 198 nM
TGI [10]: > 100000 nM
GI50 [11]: 89 nM
TGI [11]: 442 nM
GI50 [12]: 123 nM
TGI [12]: 1080 nM
GI50 [13]: 5120 nM
TGI [13]: > 100000 nM
GI50 [14]: 361 nM
TGI [14]: > 100000 nM
GI50 [15]: 45.3 nM
TGI [15]: > 29100 nM
GI50 [16]: 137 nM
TGI [16]: 677 nM
GI50 [17]: 47.1 nM
GI50 [18]: 183 nM
TGI [18]: > 100000 nM
GI50 [19]: 119 nM
TGI [19]: 2770 nM
GI50 [20]: 273 nM
TGI [20]: > 100000 nM
GI50 [21]: 52.6 nM
TGI [21]: > 32400 nM
GI50 [22]: 131 nM
TGI [22]: 355 nM
GI50 [23]: 83.5 nM
TGI [23]: 52700 nM
GI50 [24]: 29.5 nM
TGI [24]: > 100000 nM
GI50 [25]: 274 nM
TGI [25]: > 100000 nM
GI50 [26]: 317 nM
TGI [26]: > 47400 nM
GI50 [27]: 61.2 nM
TGI [27]: 4170 nM
GI50 [28]: 171 nM
TGI [28]: > 100000 nM
GI50 [29]: 403 nM
TGI [29]: 7690 nM
GI50 [30]: 219 nM
TGI [30]: > 30600 nM
GI50 [31]: 33.2 nM
TGI [31]: > 100000 nM
GI50 [32]: 165 nM
TGI [32]: 3750 nM
GI50 [33]: 2670 nM
TGI [33]: > 100000 nM
GI50 [34]: 359 nM
TGI [34]: 4120 nM
GI50 [35]: 416 nM
TGI [35]: > 100000 nM
GI50 [36]: 82.9 nM
TGI [36]: > 100000 nM
GI50 [37]: 85.8 nM
TGI [37]: > 100000 nM
GI50 [38]: 57.7 nM
TGI [38]: > 100000 nM
GI50 [39]: 563 nM
TGI [39]: 6620 nM
GI50 [40]: 52.1 nM
TGI [40]: 330 nM
GI50 [41]: 181 nM
TGI [41]: > 100000 nM
GI50 [42]: 35.8 nM
TGI [42]: 510 nM
GI50 [43]: 54.3 nM
TGI [43]: > 100000 nM
GI50 [44]: 49 nM
TGI [44]: 1490 nM
GI50 [45]: 56.4 nM
TGI [45]: 7010 nM
GI50 [46]: 44.6 nM
TGI [46]: 197 nM
GI50 [47]: 20.4 nM
TGI [47]: 228 nM
GI50 [48]: 403 nM
TGI [48]: > 100000 nM
GI50 [49]: 168 nM
TGI [49]: > 44300 nM
GI50 [50]: 68.6 nM
TGI [50]: > 100000 nM
GI50 [51]: 56.3 nM
TGI [51]: > 100000 nM
GI50 [52]: 227 nM
TGI [52]: 2280 nM
GI50 [53]: 491 nM
TGI [53]: 7500 nM
GI50 [54]: 86.4 nM
TGI [54]: 1350 nM
GI50 [55]: 84.3 nM
TGI [55]: 1020 nM
GI50 [56]: 53.7 nM
TGI [56]: 2150 nM
GI50 [57]: 47.7 nM
TGI [57]: 280 nM
GI50 [58]: 605 nM
TGI [58]: 6500 nM
